Results published in ChEMBL document CHEMBL6096673, “In Pursuit of Lead Innovation: Pharmaceutically Important and Distinct Amide-Free Succinate Dehydrogenase Inhibitors” (J Med Chem, 2025).
In brackets after ≈: the same amount, converted by molar mass.

What was measured:
Rhizoctonia solani = test: Antifungal activity against Rhizoctonia solani; assay type: functional, organism-based
Liver carboxylesterase = target: T1, Liver carboxylesterase (Sus scrofa, UniProt Q29550); test: Inhibition of porcine liver carboxylesterase
T1 sequence (Q29550 whole entry): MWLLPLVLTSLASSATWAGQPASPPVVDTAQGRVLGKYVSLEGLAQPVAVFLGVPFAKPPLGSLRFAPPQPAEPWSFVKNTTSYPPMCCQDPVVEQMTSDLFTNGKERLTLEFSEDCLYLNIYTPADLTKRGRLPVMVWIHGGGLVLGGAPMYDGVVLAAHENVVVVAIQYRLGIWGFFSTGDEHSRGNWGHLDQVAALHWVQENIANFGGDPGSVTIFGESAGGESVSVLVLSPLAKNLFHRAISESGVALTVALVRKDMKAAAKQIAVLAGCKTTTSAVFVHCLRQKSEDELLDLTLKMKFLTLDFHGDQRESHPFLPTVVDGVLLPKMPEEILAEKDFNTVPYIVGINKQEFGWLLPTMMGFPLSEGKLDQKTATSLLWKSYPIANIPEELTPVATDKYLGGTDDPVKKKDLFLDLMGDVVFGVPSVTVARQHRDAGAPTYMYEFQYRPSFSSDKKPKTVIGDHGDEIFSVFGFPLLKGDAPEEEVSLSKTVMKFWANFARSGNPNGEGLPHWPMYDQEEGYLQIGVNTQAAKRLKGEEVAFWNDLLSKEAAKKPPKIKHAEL

Sclerotinia sclerotiorum [1] = test: Antifungal activity against Sclerotinia sclerotiorum; assay type: functional, organism-based
Sclerotinia sclerotiorum [2] = test: Antifungal activity against Sclerotinia sclerotiorum assessed as inhibition of fungal growth; assay type: functional, organism-based
[3] = Binding affinity to carboxylesterase (unknown origin) assessed as inhibition constant by fluorescence analysis; parameters: species or system Homo sapiens
[4] = system: Trichophyton mentagrophytes; test: Antifungal activity against Trichophyton mentagrophytes; assay type: functional, organism-based
Plasmodium falciparum = test: Antiplasmodial activity against Plasmodium falciparum; assay type: functional, organism-based
Fusarium graminearum = test: Antifungal activity against Gibberella zeae; assay type: functional, organism-based
Alternaria solani = test: Antifungal activity against Alternaria solani; assay type: functional, organism-based
Botrytis cinerea = test: Antifungal activity against Botrytis cinerea; assay type: functional, organism-based

`Cn1cc(/C=N/Oc2cccc(I)c2)c(C(F)F)n1` showed an IC50 (Rhizoctonia solani) of 1.57 µg/mL (≈ 4.16 µM).
`COC(=O)C1=C(C)OC(N)=C(C#N)C1c1ccc(Cl)s1` (configuration not stated) showed an IC50 (Rhizoctonia solani) of 1.06 µg/mL (≈ 3.41 µM).
In the case of `COc1nc(O)c(C(=O)[C@@H](C)C[C@H](C)[C@H](Cl)CCl)c(O)c1OC`, the IC50 (Liver carboxylesterase) is reported as 22.4 nM.
For `CCOC(=O)C(C#N)C(CC(=O)c1ccc(Br)cc1)c1ccco1` (configuration not stated), the EC50 (Sclerotinia sclerotiorum [1]) was 3.3 µg/mL (≈ 8.46 µM).
Work on `COc1cc(-c2ccc(Br)o2)cc(-c2ccc(Br)cc2)n1` yielded an IC50 (Sclerotinia sclerotiorum [2]) of 1.15 µg/mL (≈ 2.81 µM).
In the case of `O=C(CC(=O)C(F)(F)F)c1cccs1`, the Ki [3] is reported as 610 nM.
Compound `Cc1cc(O)c2c(c1)O[C@@]1(C)CC[C@H]3C(C)(C)CCC[C@]34CO[C@@H]2[C@H]41` [SICCANIN] has an IC50 [4] of 0.3 µg/mL (≈ 0.876 µM) and an IC50 (Plasmodium falciparum) of 8400 nM.
With `C=CCC/C=C\C=C/CCCCCCC1CC[C@@H]([C@@H]2CC[C@@H](CC(=O)OC)OO2)O1` (single isomer, unassigned) the IC50 (Liver carboxylesterase) was under 1000 nM.
`Cn1cc(/C=N/Oc2cccc(F)c2)c(C(F)F)n1` showed an IC50 (Rhizoctonia solani) of 2.94 µg/mL (≈ 10.9 µM).
For `COc1nc(O)c(C(=O)[C@H](C)C[C@H](C)[C@@H](Cl)CCl)c(O)c1OC`, the IC50 (Liver carboxylesterase) was 2000 nM.
`Cn1cc(/C=N/Oc2cccc(Br)c2)c(C(F)F)n1` showed an IC50 (Rhizoctonia solani) of 4.53 µg/mL (≈ 13.7 µM).
In the case of `COc1nc(O)c(C(=O)[C@@H](C)C[C@H](C)[C@H](C)Cl)c(O)c1OC`, the IC50 (Liver carboxylesterase) is reported as 110 nM.
In the case of `COc1[nH]c(=O)c(C(=O)[C@@H](C)C[C@H](C)[C@@H](Cl)CCl)c(O)c1OC` [ATPENIN A5], the IC50 (Liver carboxylesterase) is reported as 14 nM.
`COc1nc(O)c(C(=O)CC[C@H](C)[C@@H](Cl)CCl)c(O)c1OC` showed an IC50 (Liver carboxylesterase) of 315 nM.
For `C=CCC/C=C\C=C/CCCCCC[C@H]1CC[C@H]([C@@H]2CC[C@@H](CC(=O)OC)OO2)O1`, the IC50 (Liver carboxylesterase) was under 1000 nM.
`O=C(NCCc1ncc(C(F)(F)F)cc1Cl)c1ccccc1C(F)(F)F` [FLUOPYRAM] gave an IC50 (Liver carboxylesterase) of under 1000 nM.
Compound `Cc1ccc(-c2cc(-c3ccco3)nc(C)n2)cc1` has an EC50 (Sclerotinia sclerotiorum [1]) of 0.07 µg/mL (≈ 0.28 µM).
With `COc1nc(O)c(C(=O)[C@@H](C)C[C@@H](C)[C@@H](Cl)CCl)c(O)c1OC` the IC50 (Liver carboxylesterase) was 7 nM.
In the case of `Cc1ccc(-c2cc(-c3ccc(Cl)cc3)nc(-n3cccn3)n2)o1`, the EC50 (Sclerotinia sclerotiorum [1]) is reported as 0.08 µg/mL (≈ 0.238 µM).
With `CC[C@@H](C)C[C@H](C)C(=O)c1c(O)nc(OC)c(OC)c1O` the IC50 (Liver carboxylesterase) was 2100 nM.
For `Cn1cc(/C=N\Oc2cccc(I)c2)c(C(F)F)n1`, the IC50 (Rhizoctonia solani) was 1.43 µg/mL (≈ 3.79 µM).
`Cn1cc(/C=N\Oc2cccc(F)c2)c(C(F)F)n1` showed an IC50 (Rhizoctonia solani) of 1.35 µg/mL (≈ 5.01 µM).
With `Cn1cc(/C=N\Oc2cccc(Br)c2)c(C(F)F)n1` the IC50 (Rhizoctonia solani) was 0.21 µg/mL (≈ 0.636 µM).
`Fc1ccc(C2C=C(c3ccc4c(c3)OCO4)NC(=S)N2)cc1` (configuration not stated) gave an EC50 (Fusarium graminearum) of 0.57 µg/mL (≈ 1.74 µM), an EC50 (Alternaria solani) of 0.07 µg/mL (≈ 0.213 µM) and an EC50 (Botrytis cinerea) of 0.44 µg/mL (≈ 1.34 µM).
